# Assay results from patent US8318973B2, “Functionalized sinapic acid and methyl sinapate” (Bezwada Biomedical, LLC, priority 2005, dated 2012).
# Assay: In vitro hydrolysis of functionalized phenolics in pH 7.4 buffer at reflux
# Assay type: physicochemical
# Conditions: 500 mg compound in 50 mL pH 7.4 buffer, reflux temperature (100° C.), monitored by TLC
# Experimental: In Vitro Hydrolysis of Functionalized Phenolics
# A few selected compounds were examined for the rate of hydrolysis by conducting in vitro hydrolysis studies at reflux temperature (100° C.). For each experiment, 500 mg of a functionalized compound and 50 mL of pH 7.4 buffer solution (purchased from Aldrich chemical company) were charged into a 100 mL round bottom flask fitted with a condenser and the contents were refluxed. In vitro hydrolysis of the functionalized phenolic was monitored by thin layer chromatography (TLC) using corresponding starting material (original amino acid) as a control. In vitro hydrolysis was continued at reflux until the functionalized molecule hydrolyzed to the starting compound.
row,SMILES,time in which the functionalized compound was hydrolyzed to the starting compound
1,"COC(=O)COC(=O)COc1ccc(C(=O)OCC(=O)OC)cc1 [Example 77, 4-Methoxycarbonylmethoxycarbonylmethoxy-benzoic acid methoxycarbonyl methyl ester]",26.5 h
2,"COC(=O)COC(=O)c1ccc(OCC(=O)OC)cc1 [Example 78, 4-Methoxycarbonylmethoxy-benzoic acid methoxycarbonylmethyl ester]",33.0 h
3,"COC(=O)COC(=O)c1ccccc1OCC(=O)OC [Example 79, 2-Methoxycarbonylmethoxy-benzoic acid methoxycarbonylmethyl ester]",eight
4,"COC(=O)COC(=O)COc1ccccc1C(=O)OCC(=O)OC [Example 81, 2-Methoxycarbonylmethoxycarbonylmethoxy-benzoic acid methoxycarbonyl methyl ester]",two
5,"COC(=O)COC(=O)COc1ccc(OCC(=O)OCC(=O)OC)cc1 [Example 84, (4-Methoxycarbonylmethoxycarbonylmethoxy-phenoxy)-acetic acid methoxycarbonyl methyl ester]",one
6,"COC(=O)C(C)OC(=O)COc1ccc(OCC(=O)OC(C)C(=O)OC)cc1 (stereo not shown) [Example 85, 2-{2-[4-(1-Methoxycarbonyl-ethoxycarbonylmethoxy)-phenoxy]-acetoxy}-propionic acid methyl ester]",two
7,"COC(=O)COC(=O)COc1ccc2cc(C(C)C(=O)OCC(=O)OC)ccc2c1 (stereo not shown) [Example 90, 2-(6-Methoxycarbonylmethoxycarbonylmethoxy-naphthalen-2-yl)-propionic acid Methoxy Carbonylmethyl ester]",four
8,"COC(=O)COC(=O)C(C)c1ccc2cc(OCC(=O)OC)ccc2c1 (stereo not shown) [Example 92, 2-(6-Methoxycarbonylmethoxy-naphthalen-2-yl)-propionic acid Methoxy Carbonyl methyl ester]",four
9,"COC(=O)COC(=O)COc1ccc(N)cc1 [Example 96, (4-Amino-phenoxy)-acetic acid methoxycarbonylmethyl ester]",three
10,"COC(=O)COC(=O)COc1ccc(-c2coc3cc(OCC(=O)OCC(=O)OC)ccc3c2=O)cc1 [Example 98, [4-(7-Methoxycarbonylmethoxycarbonylmethoxy-4-oxo-4H-chromen-3-yl)-phenoxy]-acetic acid methoxycarbonylmethyl ester]",ten
